According to patent US10795976B2, “Program randomization for cyber-attack resilient control in programmable logic controllers” (Siemens Aktiengesellschaft, priority 2016, dated 2020):
Where a name gives a salt, the structure may show the parent alone. Read-outs that look alike come from different tables or passages of the source.

Columns and labels:
Sabra mice = assay: Ultrasonic vocals after postnatal SR141716A (vocal tic-like behavior); type: in vivo
C57BL/6JOlaHsd mice [1] = type: in vivo
[2] = test system: Tourette syndrome (TS) patients; details: patient reports; cited from earlier work
mice = details: 5 mg/kg during postnatal days 5-13; measured at the age of 12 weeks; cited from earlier work
[3] = test system: CB2 receptor knockout mice; type: in vivo
cyclooxygenase 2 (COX-2) = target: T1, cyclooxygenase 2 (COX-2) (Homo sapiens, UniProt P35354); details: Schuehly et al. 2011; cited from earlier work
T1 sequence (P35354 18-604): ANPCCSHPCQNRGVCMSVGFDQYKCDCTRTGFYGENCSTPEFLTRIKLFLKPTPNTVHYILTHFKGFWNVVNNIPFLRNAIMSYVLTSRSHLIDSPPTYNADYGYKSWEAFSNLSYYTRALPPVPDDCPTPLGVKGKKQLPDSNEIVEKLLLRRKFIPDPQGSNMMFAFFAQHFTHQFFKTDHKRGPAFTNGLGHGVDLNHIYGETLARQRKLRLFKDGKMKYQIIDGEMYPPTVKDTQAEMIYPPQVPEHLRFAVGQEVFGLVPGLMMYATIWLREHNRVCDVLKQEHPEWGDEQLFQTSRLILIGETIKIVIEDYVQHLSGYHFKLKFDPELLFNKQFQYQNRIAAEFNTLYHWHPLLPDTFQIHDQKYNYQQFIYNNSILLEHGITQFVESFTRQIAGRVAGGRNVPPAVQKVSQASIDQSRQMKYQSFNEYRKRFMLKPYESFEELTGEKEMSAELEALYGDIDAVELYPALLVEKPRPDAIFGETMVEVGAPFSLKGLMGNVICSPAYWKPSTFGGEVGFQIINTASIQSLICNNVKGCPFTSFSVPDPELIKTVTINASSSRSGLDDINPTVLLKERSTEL

C57BL/6JOlaHsd mice [4] = assay: Ear scratch response (ESR) / grooming, urge-like behavior; type: in vivo
Description: 1. CB2 receptor selective ligands or CB2/SERM ligands were injected intraperitoneally or orally at doses of 0.001 to 100 mg/kg one to two hours before the injection of DOI. In order to test the effect of DOI on head twitch responses, ear scratch and grooming responses, DOI was intraperitoneally injected at a dose of 1 mg/kg.
ESR behavior is a measure for urge-like behavior and often preceded HTRs. The ESR is a rapid scratching movement of the head, neck, ears, or other body surfaces by either hindlimbs. The number of ESRs was manually counted. Every ESR was also counted as a grooming. In some experiments, each ESR was considered as a separate episode if the animal moved. In some experiments, each ESR was considered as a separate episode for every ESR.
Grooming behavior is a measure for anxiety. Grooming behavior in mice is characterized by licking its fur, groom with the forepaws, or scratch with any limb. Often the mouse will mix all of these grooming behaviors. The number of grooms was manually counted. In some experiments, each grooming behavior was considered as a separate episode if the animal moved its hindlimbs. In some experiments, each grooming behavior was considered as a separate episode for every grooming behavior.

osteoclastogenesis = details: Schuehly et al. 2011; cited from earlier work
C57BL/6JOlaHsd mice [5] = assay: Marble burying test (MBT), compulsive behavior; type: in vivo; details: one hour after a single injection, age 6 weeks
Description: Mice were habituated to the test room for 1 h. A mouse was injected with DOI as above and then placed in the experimental cage (white plastic 36×24.5×14.5 cm) filled with 5 cm sawdust for 5 min, in the absence of marbles. The mouse was taken out and twenty black glass were arranged 4 by 5 with 7 cm apart and 1 cm apart from the wells of the cage. Each mouse was tested for its marble burying activity for 30 min. Activity was videotaped with EthoVision and buried marbles were counted manually at the end of the experiment (after 30 min). A marble considered as buried when it was sawdust-covered by two third of its volume.
Marbles that were moved were also counted.
With a view to study the effect of the JTE-907 and M1 compositions on repetitive behavior, C57BL/6JOlaHsd mice were intraperitoneally injected at age 6 weeks with a single dose of JTE-907 at 0.2-50 mg/kg, M1 at 0.2-50 mg/kg or equivalent vehicle. The number of buried marbles in the burying marble test by each mouse was recorded.

GPR55 = GPR55 (Homo sapiens, UniProt Q9Y2T6); details: Schuehly et al. 2011; cited from earlier work
[6] = 10 mg/kg i.p. single dose, one hour before DOI 1 mg/kg i.p., age 3 weeks
[7] = 0.2 mg/kg i.p. single dose, one hour before DOI 1 mg/kg i.p., age 3 weeks
[8] = 5 mg/kg i.p. single dose, one hour before DOI 1 mg/kg i.p., age 3 weeks
[9] = 1-20 mg/kg i.p., no DOI, age 6 weeks
[10] = model inducer, 1 mg/kg i.p., age three weeks up to 21 weeks

GPR55, sequence (Q9Y2T6 whole entry, species assumed): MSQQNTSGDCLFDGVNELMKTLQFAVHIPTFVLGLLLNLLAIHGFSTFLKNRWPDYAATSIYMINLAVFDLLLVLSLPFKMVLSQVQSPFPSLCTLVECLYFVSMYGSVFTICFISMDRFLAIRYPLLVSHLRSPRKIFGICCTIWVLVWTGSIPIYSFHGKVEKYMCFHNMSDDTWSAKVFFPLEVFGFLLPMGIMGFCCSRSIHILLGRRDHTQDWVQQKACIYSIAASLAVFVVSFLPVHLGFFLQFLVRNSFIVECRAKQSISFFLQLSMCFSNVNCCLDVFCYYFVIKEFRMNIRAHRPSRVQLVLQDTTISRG

For `Cc1c(C(=O)NN2CCCCC2)nn(-c2ccc(Cl)cc2Cl)c1-c1ccc(Cl)cc1` [SR141716A], the “vocalization of mice pups vs control litter mates” value (Sabra mice; administered at the age of one to two days) was “higher level of vocalization and/or higher number of vocals”.
With `O=C(c1ccc(OCCN2CCCCC2)cc1)c1c(-c2ccc(O)cc2)sc2cc(O)ccc12` [raloxifene] the “DOI-induced HTR frequency” value (C57BL/6JOlaHsd mice [1]; [6]) was “reduced”.
In the case of `C=C1CC/C=C(\C)CC[C@@H]2[C@@H]1CC2(C)C` [BCP, beta-caryophyllene], the “DOI-induced repetitive head twitches” value (C57BL/6JOlaHsd mice [1]; dose not stated) is reported as “able to reduce”.
For `CCCCCc1cc(O)c2c(c1)OC(C)(C)[C@@H]1CCC(C)=C[C@@H]21` [Δ^9-tetrahydrocannabinol], the tic frequency [2] is listed as “ameliorate”.
In the case of `CCCCCCC(C)(C)c1cc(OC)c([C@@H]2C=C(CO)[C@@H]3C[C@H]2C3(C)C)c(OC)c1` [HU-308, [(1R,2R,5R)-2-[2,6-dimethoxy-4-(2-methyloctan-2-yl)phenyl]-7,7-dimethyl-4-bicyclo[3.1.1]hept-3-enyl] methanol], the “motor tics/head twitches in the open field test” value (mice) is listed as “induce abnormal motor tics/head twitches”, the “DOI-induced HTR frequency” value (C57BL/6JOlaHsd mice [1]; [7]) is listed as “reduced” and the “repetitive behavior (HTR) with the drug alone” value (C57BL/6JOlaHsd mice [1]; 0.2 mg/kg i.p., saline instead of DOI, age 3 weeks) is listed as “significantly increased”. The “DOI-induced HTR frequency” value (C57BL/6JOlaHsd mice [1]; [8]) was “reduced” and the “DOI-induced HTR frequency in CB2 receptor knockout mice” value ([3]; 5 mg/kg i.p., one hour before DOI 1 mg/kg i.p., male, age 6-21 weeks) was “significantly reduces”.
In the case of `CCN(CC)CCOc1ccc(C(=C(Cl)c2ccccc2)c2ccccc2)cc1` [clomiphene citrate], the “DOI-induced HTR frequency” value (C57BL/6JOlaHsd mice [1]; [6]) is reported as “did not significantly reverse”.
In the case of `C=CCc1ccc(O)c(-c2ccc(OC)c(CC=C)c2)c1` [MH, 2-(4-Methoxy-3-prop-2-enylphenyl)-4-prop-2-enylphenol], the COX-2 enzymatic activity (cyclooxygenase 2 (COX-2)) is given as “inhibits”, the “urge-like response induced by the drug alone” value (C57BL/6JOlaHsd mice [4]; [9]) is given as “did not induce urge-like response at any dose” and the “frequency of DOI-induced ESR behavior (urge-like behavior)” value (C57BL/6JOlaHsd mice [4]; i.p., one hour before DOI 1 mg/kg i.p., dose not given) is given as “reduced”. For the same compound, the “vocal tic-like behavior (number of ultrasonic vocal events)” value (Sabra mice; SR141716A 5 mg/kg s.c. postnatal day 1-3, drug 5 mg/kg s.c. at age 13 days, one hour before recording) was “significantly reduces”, the osteoclastogenesis (osteoclastogenesis) was “potently inhibits” and the “DOI-induced HTRs” value (C57BL/6JOlaHsd mice [1]; 1 mg/kg i.p. single dose, one hour before DOI 1 mg/kg i.p., age 3 weeks) was “reduced”. The “DOI-induced HTRs” value (C57BL/6JOlaHsd mice [1]; 1 mg/kg i.p. single dose, one hour before DOI 1 mg/kg i.p., age 6 weeks) was “reduced”, the “DOI-induced HTR frequency” value (C57BL/6JOlaHsd mice [1]; 1 mg/kg oral (gavage) in self-emulsifying oral formulation, two hours before DOI 1 mg/kg i.p., age 3 weeks) was “significantly reduced” and the “DOI-induced HTR frequency” value (C57BL/6JOlaHsd mice [1]; [8]) was “reduced”. For the same compound, the “DOI-induced HTRs” value (C57BL/6JOlaHsd mice [1]; 5 mg/kg i.p. single dose, one hour before DOI 1 mg/kg i.p., age 6 weeks) was “reduced”, the “DOI-induced HTR frequency” value (C57BL/6JOlaHsd mice [1]; 5 mg/kg oral (gavage) in self-emulsifying oral formulation, two hours before DOI 1 mg/kg i.p., age 3 weeks) was “significantly reduced” and the “HTR induced by the drug alone” value (C57BL/6JOlaHsd mice [1]; [9]) was “did not induce HTR at any dose”. For the same compound, the “effect to reverse DOI-induced HTR, comparison of ages” value (C57BL/6JOlaHsd mice [1]; i.p., 20 min from DOI injection, age 3 weeks vs 6 weeks) was “higher at age 3 weeks than 6 weeks”, the “effect on DOI-induced HTR frequency, 1 mg/kg compared with 5 mg/kg” value (C57BL/6JOlaHsd mice [1]; oral formulation, age 3 weeks) was “greater” and the “number of buried marbles” value (C57BL/6JOlaHsd mice [5]; 10 mg/kg i.p.) was “reduced”. The GPR55 activity (GPR55) was “not”.
In the case of `COc1cc(CC(C)N)c(OC)cc1I.Cl` (single isomer, unassigned; (-)) [DOI, (−)-1-(2,5-dimethoxy-4-iodophenyl)-2-aminopropane hydrochloride], the “ear scratch response and grooming behavior” value (C57BL/6JOlaHsd mice [4]; [10]) is reported as “increased”, the head twitch response (C57BL/6JOlaHsd mice [1]; [10]) is reported as “increased” and the “HTR frequency in CB2 receptor knockout mice” value ([3]; model inducer, 1 mg/kg i.p., 6 weeks old) is reported as “increased”.
For `CCCCCOc1c(OC)ccc2cc(C(=O)NCc3ccc4c(c3)OCO4)c(=O)[nH]c12` [JTE-907, N-(benzo[1,3]dioxol-5-ylmethyl)-7-methoxy-2-oxo-8-pentyloxy-1,2-dihydroquinoline-3-carboxamide], the “DOI-induced HTR frequency” value (C57BL/6JOlaHsd mice [1]; [7]) was “reduced”, the “DOI-induced HTR frequency” value (C57BL/6JOlaHsd mice [1]; [8]) was “reduced” and the “number of buried marbles” value (C57BL/6JOlaHsd mice [5]; 5 mg/kg i.p.) was “reduced”.
